Data as given in patent US20240416143A1, “PHOTONIC ANTIMICROBIAL WOUND SURFACE DRESSING” (The General Hospital Corporation, priority 2021, published 2024).

Key:
[1] = system: P. aeruginosa biofilms in porcine explants; test: Photoinactivation of biofilms in ex vivo porcine partial thickness wounds by menadione + aBL; format: cell-based, Pseudomonas aeruginosa
Experimental: Skin was handled and sanitized with 70% isopropanol solution after hair shaving. The explants and inner wounds were created using a 12 mm and 4 mm biopsy punches respectively. The explants were placed in 12 wells plates using a (8 μm pore) inserts (Corning™ Falcon™). 1 mL of DMEM media was added to each well in the plate before the insert. After 24 hours, the inner wounds in the explants were inoculated with 20 μL of 10^8 CFU/mL of bacterial solution. After that, the explants were incubated at 37° C. and 5% CO2 for 48 hours to ensure the growth of a mature bacterial biofilm. The inner wounds of the explants were replenished daily with fresh BHI media to ensure that the wounds are hydrated.
48 hours following the inoculation, mature monobacterial biofilms of MRSA, P. aeruginosa, and E. coli were obtained with 8.00 log10 CFU/g per wound bed on each explant. MRSA biofilms in explant were reduced by 0.81 log10 CFU/g after the treatment of just aBL 250 J/cm^2 (50 mW/cm^2). However, MRSA biofilms in ex-vivo porcine skin were reduced by up to 4.18 log10 CFU/g when treated with aBL combined with menadione (200 μg/mL). For MRSA biofilms, the log reduction of mature monobacterial biofilm increased as the menadione concentration increased (see FIGS. 16A-16B). […]

MRSA = test: General ROS by DCFH-DA assay in bacteria; format: cell-based, methicillin-resistant Staphylococcus aureus
Experimental: 1.2.9.1 General ROS measured by […] (DCFH-DA) assay: DCF-DA was purchased from Thermofisher. […] The production of ROS by menadione when combined with blue light was measured in the presence and absence of bacteria. The bacteria (MRSA) was grown in BHI broth medium with shaking overnight. Cells were collected by centrifugation at 4,000 rpm for 5 minutes and resuspended in PBS in the stationary growth phase culture of 1×10^8 CFU/mL. The microbial suspension was transferred to a 35×12-mm dish, mixed with 10 μg/mL of menadione, and stained with 10 μM DCFH-DA solution per the manufacturer's instruction. The solutions (with and without bacteria) were irradiated with the blue light at 50 mW/cm^2 and the samples were collected every 15 minutes to be analyzed by Microplate Spectrofluorometer (SPECTRAmax®, Molecular Devices, USA) at λex=495 nm and λem=525 nm. The control and the menadione/dark groups were generated under the same conditions without irradiation.
We investigated the possibility that minocycline and doxycycline might be acting as a photosensitizer. To do so, the production of ROS by minocycline and doxycycline combined with blue light was measured by the ROS probe DCF in MRSA. From FIG. 28, it can be observed that each of minocycline and doxycycline when combined with blue light at 405 nm produced ROS.

P. aeruginosa biofilm = test: Photoinactivation of 48-hour in vitro biofilms by adjuvant/antibiotic + antimicrobial blue light; format: cell-based, Pseudomonas aeruginosa
Experimental: The bacterial suspension was grown in a shaking incubator overnight in BHI broth. Cells were collected by centrifugation at 4,000 rpm for 5 minutes and suspended in PBS at a density of 10^6 CFU/mL. Then, the biofilms were grown for 48 hours (unless otherwise specified) in 96-well microtiter plates as described previously [Ref. 27], with a renewal of the media every 24 hours. Following the 48-hour biofilm growth, fresh 200 μL of PBS with or without menadione in different concentrations were added to the wells and the biofilms were incubated in the dark at 25° C. for 1 hour: 0, 0.5, 1, and 2 μg/mL for MRSA USA300, AF0001, IQ0064; […]; and 0, 100, and 150 μg/mL for E. coli ATCC 25922. After that, the control and the menadione-treated biofilms were maintained without irradiation (“menadione/dark”). Simultaneously, the aBL was delivered to the other biofilm groups testing different power densities (50, 30, 15, and 10 mW/cm^2) while keeping the same radiant exposure of 250 J/cm^2. After the light exposure, the biofilms were carefully washed two times with PBS and 200 μL of PBS was added to each well. Then, the bacterial biofilms in each well were harvested by scratching with a sterile pipette tip and three wells of each group were pooled together in a 1.5 mL microcentrifuge tube. The total volume obtained, 600 μL (3 wells), was sonicated using a Branson 2510 Water Bath Sonicator (Marshall Scientific, LLC) for 5 minutes and the CFU was determined by 10-fold serial dilutions in PBS on BHI agar plates. CFU was counted after overnight incubation at 37° C. Experiments were performed in triplicate.
A bacterial suspension was grown in a shaking incubator overnight in BHI broth. Cells were collected by centrifugation at 4,000 rpm for 5 minutes and suspended in PBS at a density of 10^6 CFU/mL. Then, the biofilms were grown for 48 hours in 96-well microtiter plates with a renewal of the media every 24 hours. Following the 48-hour biofilm growth, fresh 200 μL of PBS with the tetracyclines minocycline, doxycycline, and demeclocycline in different concentrations were added to the wells and the biofilms were incubated in the dark at 25° C. for 1 hour: 0, 0.25, 0.5, and 1 μg/mL for minocycline; 0, 0.5, 1, and 2 μg/mL for doxycycline; and 0, 0.5, 1, and 2 for demeclocycline. After that, the control and the tetracycline-treated biofilms were maintained without irradiation (“menadione/dark”). […] The total volume obtained, 600 μL (3 wells), was sonicated using a Branson 2510 Water Bath Sonicator (Marshall Scientific, LLC) for 5 minutes and the CFU/mL was determined by 10-fold serial dilutions in PBS on BHI agar plates. CFU was counted after overnight incubation at 37° C.

CC1=CC(=O)c2ccccc2C1=O [menadione, 2-methyl-1,4-naphthoquinone]
biofilm reduction by menadione and blue light ([1]; 50 μg/mL menadione + blue light): 5.27 log10 CFU/mL
biofilm reduction by menadione in the absence of aBL ([1]; no aBL): no effect of biofilm reduction
production of ROS measured by DCF, menadione+aBL vs aBL alone (MRSA; MRSA, 10 μg/mL menadione, 180 J/cm^2): two times higher
ROS generation in bacteria by menadione in the dark (MRSA; absolute dark): does not appear to generate significant ROS
increase of total ROS, menadione combined with aBL (MRSA; bacteria, menadione + aBL): 2.5 fold
biofilm reduction by menadione without irradiation (P. aeruginosa biofilm; 48 h biofilm, dark): < 1 log killing
biofilm eradicated by menadione plus aBL (P. aeruginosa biofilm; 48 h biofilm, 100 μg/mL menadione + aBL 250 J/cm^2 (50 mW/cm^2)): 6.6 log10 CFU/mL
potentiation of the effect of aBL by menadione (P. aeruginosa biofilm; 48 h in vitro biofilm, vs aBL alone): ~100 fold
